Test results: PubChem BioAssay (NCI)
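Briefly, cells in 96-well plates were exposed to five compound concentrations for 48 h, and endpoints were estimated by linear interpolation. At the TGI there is no net growth.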

Key:
Assay in all cases: DTP human tumour cell line panel, 48 h
[1] = test system: TK-10 renal
[2] = test system: SW-620 colon
[3] = test system: UO-31 renal
[4] = test system: OVCAR-8 ovarian
[5] = test system: BT-549 breast
[6] = test system: UACC-62 melanoma
[7] = test system: KM12 colon
[8] = test system: SK-MEL-28 melanoma
[9] = test system: EKVX NSCLC
[10] = test system: 786-0 renal
[11] = test system: T-47D breast
[12] = test system: COLO 205 colon
[13] = test system: RPMI-8226 leukemia
[14] = test system: DU-145 prostate
[15] = test system: UACC-257 melanoma
[16] = test system: SF-295 CNS
[17] = test system: LOX IMVI melanoma
[18] = test system: M14 melanoma
[19] = test system: RXF 393 renal
[20] = test system: U251 CNS

SMILES	TGI [1] [µM]	TGI [2] [µM]	TGI [3] [µM]	TGI [4] [µM]	TGI [5] [µM]	TGI [6] [µM]	TGI [7] [µM]	TGI [8] [µM]	TGI [9] [µM]	TGI [10] [µM]	TGI [11] [µM]	TGI [12] [µM]	TGI [13] [µM]	TGI [14] [µM]	TGI [15] [µM]	TGI [16] [µM]	TGI [17] [µM]	TGI [18] [µM]	TGI [19] [µM]	TGI [20] [µM]
COc1cccc(C=C2N=C(c3ccccc3)N(n3c(-c4ccccc4)nc4ccccc4c3=O)C2=O)c1	> 100	> 100	> 100	> 100	> 100	> 100	> 100	> 100	> 100	> 100	> 100	> 100	> 100	> 100	> 100	> 100	> 100	> 100		
CCOC(=O)c1nc2ccc(C(F)(F)F)cc2nc1Nc1ccc(F)cc1	> 100	> 100	> 100	> 100	> 100	> 100	> 100	> 100		> 100	> 100	> 100		> 100	> 100	> 100	> 100	> 100	> 100	
CCO/C(O)=C(/C(=N)N1CCCC1)C(=O)Nc1cccc(Cl)c1	> 100	> 100		> 100	> 100	> 100	> 100	> 100	> 100	> 100	> 100	> 100	> 100	> 100	> 100	> 100	> 100	> 100	> 100	> 100
COc1cc(/C=N/c2ccccn2)cc(OC)c1OC		> 100	> 100	> 100	> 100	> 100	> 100	> 100	> 100	> 100	> 100	> 100	> 100	> 100	> 100	> 100	> 100	> 100	> 100	> 100
COc1cc(C(c2cccc3ccccc23)N2C(=O)CCC2C(=O)O)cc(OC)c1OC (stereo not given)		> 100	> 100	> 100	> 100	> 100	> 100	> 100	> 100	> 100	> 100	> 100	> 100	> 100	> 100	> 100		> 100	> 100	> 100
CN(C)/C=N\c1nncc2[nH]cnc12	> 100	> 100	> 100	> 100	> 100	> 100	> 100	> 100	> 100	> 100	> 100	> 100	> 100		> 100	> 100	> 100	> 100		> 100
O=C(O)C1CCCCN1C(=O)Cc1c[nH]c2ccccc12 (stereo not given)	> 100	> 100		> 100	> 100	> 100	> 100	> 100	> 100	> 100	> 100	> 100	> 100	> 100	> 100	> 100	> 100	> 100	> 100	> 100
CC(C)CC(NP(=O)(O)OC1OC(C)C(O)C(O)C1O)C(=O)NC(Cc1c[nH]c2ccccc12)C(=O)O (stereo not given)		> 100	> 100	> 100	> 100	> 100	> 100	> 100	> 100	> 100	> 100	> 100	> 100	> 100	> 100	> 100		> 100		> 100
Nc1ncnc2c1ncn2-c1ccc([N+](=O)[O-])cn1	> 100	> 100	> 100	> 100	> 100	> 100	> 100	> 100		> 100	> 100	> 100	> 100	> 100	> 100	> 100	> 100	> 100	> 100	> 100
COC(=O)c1nn2ccc3ccccc3c2c1C(=O)OC	> 100	> 100	> 100	> 100	> 100	> 100	> 100	> 100	> 100	> 100	> 100	> 100		> 100	> 100	> 100	> 100	> 100	> 100	> 100
CCc1[nH]c(=O)c2oc3cc4ccccc4cc3c2c1C(=O)O	> 10	> 10	> 10	> 10	> 10		> 10		> 10	> 10				> 10	> 10	> 10	> 10	> 10	> 10	
CCCCCCSCC/C(C)=N\OC	> 100	> 100	> 100	> 100	> 100	> 100	> 100	> 100	> 100	> 100		> 100	> 100	> 100	> 100	> 100	> 100	> 100	> 100	> 100
COc1cc(C2SCC(=O)N2c2ccc(NC(C)=O)cc2)cc(OC)c1OC (stereo not given)	> 100	> 100	> 100	> 100	> 100	> 100	> 100	> 100	> 100	> 100	> 100	> 100	> 100	> 100	> 100	> 100	> 100	> 100		> 100
